A short description of data set [1]: Pharmacokinetic study in minipigs (i.v.). The note with it: male, Göttingen, minipig, in vivo, iv.
Experimental: The purpose of this study is to determine the protraction in vivo of the GLP-1 derivatives after i.v. administration to minipigs, i.e. the prolongation of their time in the body and thereby their time of action. This is done in a pharmacokinetic (PK) study, where the terminal half-life of the derivative in question is determined. By terminal half-life is meant the time it takes to halve a certain plasma concentration in the terminal elimination phase.
Male Göttingen minipigs were obtained from Ellegaard Göttingen Minipigs (Dalmose, Denmark) approximately 7-14 months of age and weighing approximately 16-35 kg were used in the studies. The minipigs were housed either individually (pigs with permanent catheters) or in a group and fed restrictedly once or twice daily with SDS minipig diet (Special Diets Services, Essex, UK).
After at least 2 weeks of acclimatisation two permanent central venous catheters were implanted in vena cava caudalis or cranialis in each animal. The animals were allowed 1 week recovery after the surgery, and were then used for repeated pharmacokinetic studies with a suitable wash-out period between successive GLP-1 derivative dosings.
Blood samples (for example 0.8 ml) were collected in EDTA buffer (8 mM) and then centrifuged at 4° C. and 1942G for 10 minutes.
Plasma was pipetted into Micronic tubes on dry ice, and kept at −20° C. until analysed for plasma concentration of the respective GLP-1 compound using LOCI. Individual plasma concentration-time profiles were analyzed by a non-compartmental pharmacokinetic method in Phoenix v. 6.2 (Pharsight Inc., Mountain View, Calif., USA), or other relevant software for PK analysis, and the resulting terminal half-lives (harmonic mean) determined.
The target in data set [2] is T1, human GLP-1 receptor (Homo sapiens, UniProt P43220).
T1 construct: expressed in transfected cells; host or cells: BHK cells (parent line BHKTS13), clone FCW467-12A; membrane preparation
The experiment in a line: In vitro potency: CRE luciferase reporter gene assay in BHK cells expressing the human GLP-1 receptor. Format: cell-based. The essentials: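 Whole-cell assay in stably transfected BHK cells carrying CRE-driven firefly luciferase, 5×10^3 cells/well, in assay buffer with 2% ovalbumin and 0.2% Pluronic F-68. Compound working solutions were 0.2 μM.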
In general terms: A reporter such as luciferase makes a cellular process visible.

Data set [3] concerns the target T1, human GLP-1 receptor. The experiment in a line: GLP-1 receptor binding: competitive binding assay (125I-GLP-1, SPA) on isolated membranes at low and high HSA.
Where [4] appears, read: whole cell reporter gene assay, BHK cells, human GLP-1 receptor, average of at least two replicates, read-out: EC50.
[5] abbreviates: Low HSA IC50, low HSA (max. 0.001% final assay concentration).
[6] abbreviates: high HSA (2.0% final assay concentration), read-out: High HSA IC50.

Like-named read-outs stand apart in the source and are kept apart here.

One may read the half-life as the time in which the quantity being followed falls by half. The low end stands for fast loss, the high end for slow loss. For orientation: EC50 means the concentration at which the effect is half-maximal. As usually defined, the IC50 is the concentration needed to halve the response being measured.

T1 sequence (P43220 24-463): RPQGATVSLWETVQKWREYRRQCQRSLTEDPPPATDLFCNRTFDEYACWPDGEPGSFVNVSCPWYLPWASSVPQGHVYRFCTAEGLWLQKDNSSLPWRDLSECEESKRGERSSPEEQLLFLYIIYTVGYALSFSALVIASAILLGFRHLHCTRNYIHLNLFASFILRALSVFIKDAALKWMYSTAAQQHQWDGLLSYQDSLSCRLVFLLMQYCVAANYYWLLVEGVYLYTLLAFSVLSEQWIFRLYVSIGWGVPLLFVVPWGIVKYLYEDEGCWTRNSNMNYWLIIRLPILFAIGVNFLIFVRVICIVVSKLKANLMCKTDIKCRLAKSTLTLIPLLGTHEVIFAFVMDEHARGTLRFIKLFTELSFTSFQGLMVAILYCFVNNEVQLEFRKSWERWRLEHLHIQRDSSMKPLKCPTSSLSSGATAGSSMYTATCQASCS

In turn, `CC[C@H](C)[C@H](NC(=O)[C@H](Cc1ccccc1)NC(=O)[C@H](CCC(=O)O)NC(=O)[C@H](CCCNC(=N)N)NC(=O)[C@H](C)NC(=O)[C@H](C)NC(=O)[C@H](CCC(N)=O)NC(=O)[C@H](CCC(=O)O)NC(=O)[C@H](CCC(=O)O)NC(=O)[C@H](CC(C)C)NC(=O)[C@H](Cc1ccc(O)cc1)NC(=O)[C@H](CO)NC(=O)[C@H](CO)NC(=O)[C@@H](NC(=O)[C@H](CC(=O)O)NC(=O)[C@H](CO)NC(=O)[C@@H](NC(=O)[C@H](Cc1ccccc1)NC(=O)[C@@H](NC(=O)CNC(=O)[C@H](CCC(=O)O)NC(=O)C(C)(C)NC(=O)[C@@H](N)Cc1c[nH]cn1)[C@@H](C)O)[C@@H](C)O)C(C)C)C(=O)N[C@@H](C)C(=O)N[C@@H](Cc1c[nH]c2ccccc12)C(=O)N[C@@H](CC(C)C)C(=O)N[C@H](C(=O)N[C@@H](CCCNC(=N)N)C(=O)NCC(=O)N[C@@H](CCCNC(=N)N)C(=O)N[C@@H](CCCCNC(=O)CN(CCCNC(=O)COCCOCCNC(=O)COCCOCCNC(=O)COCCOCCNC(=O)COCCOCCNC(=O)COCCOCCNC(=O)COCCOCCNC(=O)CC[C@H](NC(=O)[C@H]1CC[C@H](CNC(=O)CCCCCCCCCCCCCCCCCCC(=O)O)CC1)C(=O)O)CCCNC(=O)COCCOCCNC(=O)COCCOCCNC(=O)COCCOCCNC(=O)COCCOCCNC(=O)COCCOCCNC(=O)COCCOCCNC(=O)CC[C@H](NC(=O)[C@H]1CC[C@H](CNC(=O)CCCCCCCCCCCCCCCCCCC(=O)O)CC1)C(=O)O)C(=O)O)C(C)C` [Example 3] showed a half-life in data set [1] (5 nmol/kg) of 159 h. For the same molecule, the EC50 on human GLP-1 receptor [2] (setting [4]) was 0.02 nM. Further, the half-inhibitory concentration (IC50) on human GLP-1 receptor [3] (setting [5]) turned out to be 0.41 nM; on human GLP-1 receptor [3] (setting [6]), 22 nM.
For the molecule `CC[C@H](C)[C@H](NC(=O)[C@H](Cc1ccccc1)NC(=O)[C@H](CCC(=O)O)NC(=O)[C@H](CCCNC(=N)N)NC(=O)[C@H](C)NC(=O)[C@H](C)NC(=O)[C@H](CCC(N)=O)NC(=O)[C@H](CCC(=O)O)NC(=O)[C@H](CCC(=O)O)NC(=O)[C@H](CC(C)C)NC(=O)[C@H](Cc1ccc(O)cc1)NC(=O)[C@H](CO)NC(=O)[C@H](CO)NC(=O)[C@@H](NC(=O)[C@H](CC(=O)O)NC(=O)[C@H](CO)NC(=O)[C@@H](NC(=O)[C@H](Cc1ccccc1)NC(=O)[C@@H](NC(=O)CNC(=O)[C@H](CCC(=O)O)NC(=O)C(C)(C)NC(=O)[C@@H](N)Cc1c[nH]cn1)[C@@H](C)O)[C@@H](C)O)C(C)C)C(=O)N[C@@H](C)C(=O)N[C@@H](Cc1c[nH]c2ccccc12)C(=O)N[C@@H](CC(C)C)C(=O)N[C@H](C(=O)N[C@@H](CCCNC(=N)N)C(=O)NCC(=O)N[C@@H](CCCNC(=N)N)C(=O)N[C@@H](CCCCNC(=O)CN(CCCNC(=O)COCCOCCNC(=O)COCCOCCNC(=O)COCCOCCNC(=O)COCCOCCNC(=O)COCCOCCNC(=O)[C@@H](N)CCCCNC(=O)[C@@H](N)CCCCNC(=O)CCCNC(=O)CCCCCCCCCCCCCCCS(=O)(=O)O)CCCNC(=O)COCCOCCNC(=O)COCCOCCNC(=O)COCCOCCNC(=O)COCCOCCNC(=O)COCCOCCNC(=O)[C@@H](N)CCCCNC(=O)[C@@H](N)CCCCNC(=O)CCCNC(=O)CCCCCCCCCCCCCCCS(=O)(=O)O)C(=O)O)C(C)C` [Example 9, N{Epsilon-37}-[2-[bis[3-[[2-[2-[2-[[2-[2-[2-[[2-[2-[2-[[2-[2-[2-[[2-[2-[2-[[(2S)-2-amino-6-[[(2S)-2-amino-6-[4-(16-sulfohexadecanoylamino)butanoylamino]hexanoyl]amino]hexanoyl]amino]ethoxy]ethoxy]acetyl]amino]ethoxy]ethoxy]acetyl]amino]ethoxy]ethoxy]acetyl]amino]ethoxy]ethoxy]acetyl]amino]ethoxy]ethoxy]acetyl]amino]propyl]amino]acetyl]-[Aib8,Glu22,Arg26,Arg34,Lys37]-GLP-1-(7-37)-peptide], the half-life in data set [1] (5 nmol/kg) was 104 h. Besides, the concentration giving a half-maximal response (EC50) at human GLP-1 receptor [2] worked out at 0.0016 nM. In addition, the 50% inhibitory concentration (IC50) on human GLP-1 receptor [3] (High HSA IC50, high HSA (2.0% final assay concentration)) was 29 nM; on human GLP-1 receptor [3] (setting [5]) it was 0.16 nM.
Take `CC[C@H](C)[C@H](NC(=O)[C@H](Cc1ccccc1)NC(=O)[C@H](CCC(=O)O)NC(=O)[C@H](CCCNC(=N)N)NC(=O)[C@H](C)NC(=O)[C@H](C)NC(=O)[C@H](CCC(N)=O)NC(=O)[C@H](CCC(=O)O)NC(=O)[C@H](CCC(=O)O)NC(=O)[C@H](CC(C)C)NC(=O)[C@H](Cc1ccc(O)cc1)NC(=O)[C@H](CO)NC(=O)[C@H](CO)NC(=O)[C@@H](NC(=O)[C@H](CC(=O)O)NC(=O)[C@H](CO)NC(=O)[C@@H](NC(=O)[C@H](Cc1ccccc1)NC(=O)[C@@H](NC(=O)CNC(=O)[C@H](CCC(=O)O)NC(=O)C(C)(C)NC(=O)[C@@H](N)Cc1c[nH]cn1)[C@@H](C)O)[C@@H](C)O)C(C)C)C(=O)N[C@@H](C)C(=O)N[C@@H](Cc1c[nH]c2ccccc12)C(=O)N[C@@H](CC(C)C)C(=O)N[C@H](C(=O)N[C@@H](CCCNC(=N)N)C(=O)NCC(=O)N[C@@H](CCCNC(=N)N)C(=O)N[C@@H](CCCCNC(=O)COCCOCCNC(=O)COCCOCCNC(=O)CN(CCCNC(=O)COCCOCCNC(=O)COCCOCCNC(=O)COCCOCCNC(=O)COCCOCCNC(=O)CC[C@H](NC(=O)[C@H]1CC[C@H](CNC(=O)CCCCCCCCCCCCCCCCCCC(=O)O)CC1)C(=O)O)CCCNC(=O)COCCOCCNC(=O)COCCOCCNC(=O)COCCOCCNC(=O)COCCOCCNC(=O)CC[C@H](NC(=O)[C@H]1CC[C@H](CNC(=O)CCCCCCCCCCCCCCCCCCC(=O)O)CC1)C(=O)O)C(=O)O)C(C)C` [Example 11]: in data set [1] (2 nmol/kg), the half-life was 160 h. For the same molecule, at human GLP-1 receptor [2] (setting [4]), the EC50 came to 0.017 nM. Besides, the IC50 came out at 0.35 nM on human GLP-1 receptor [3] (setting [5]) and 33 nM on human GLP-1 receptor [3] (setting [6]).
On the same counts, the results for `CC[C@H](C)[C@H](NC(=O)[C@H](Cc1ccccc1)NC(=O)[C@H](CCC(=O)O)NC(=O)[C@H](CCCNC(=N)N)NC(=O)[C@H](C)NC(=O)[C@H](C)NC(=O)[C@H](CCC(N)=O)NC(=O)[C@H](CCC(=O)O)NC(=O)[C@H](CCC(=O)O)NC(=O)[C@H](CC(C)C)NC(=O)[C@H](Cc1ccc(O)cc1)NC(=O)[C@H](CO)NC(=O)[C@H](CO)NC(=O)[C@@H](NC(=O)[C@H](CC(=O)O)NC(=O)[C@H](CO)NC(=O)[C@@H](NC(=O)[C@H](Cc1ccccc1)NC(=O)[C@@H](NC(=O)CNC(=O)[C@H](CCC(=O)O)NC(=O)C(C)(C)NC(=O)[C@@H](N)Cc1c[nH]cn1)[C@@H](C)O)[C@@H](C)O)C(C)C)C(=O)N[C@@H](C)C(=O)N[C@@H](Cc1c[nH]c2ccccc12)C(=O)N[C@@H](CC(C)C)C(=O)N[C@H](C(=O)N[C@@H](CCCNC(=N)N)C(=O)NCC(=O)N[C@@H](CCCNC(=N)N)C(=O)N[C@@H](CCCCNC(=O)COCCOCCNC(=O)COCCOCCNC(=O)COCCOCCNC(=O)COCCOCCNC(=O)CN(CCCNC(=O)COCCOCCNC(=O)COCCOCCNC(=O)CC[C@H](NC(=O)[C@H]1CC[C@H](CNC(=O)CCCCCCCCCCCCCCCCCCC(=O)O)CC1)C(=O)O)CCCNC(=O)COCCOCCNC(=O)COCCOCCNC(=O)CC[C@H](NC(=O)[C@H]1CC[C@H](CNC(=O)CCCCCCCCCCCCCCCCCCC(=O)O)CC1)C(=O)O)C(=O)O)C(C)C` [Example 12] are 137 h, 0.02 nM, 0.51 nM and 25 nM.

These data come from patent publication US11572398B2, “GLP-1 derivatives and uses thereof” (Novo Nordisk A/S, priority 2014, dated 2023).
